According to patent US12239661B2, “Methods and compositions for treating undesired implanted tissue filler” (priority 2019, dated 2025):

Columns and labels:
[1] = Method: A total of 10 CT-scans were performed at 30 min, 1 h 15 min, 1 h 30 min, 1 h 45 min, 2 h, 3 h, 4 h, 8 h, 1 day (24 h) and 7 days after injections of the dermal filler.
The X-ray computed tomography (CT) acquisitions were performed with the Computed Tomography Scanner BrightSpeed 16 (General Electric). In order to measure the volume, the mean density and visualize the 3D (Three-dimensional) shape of the dermal fillers SC injected, in vivo CT-scans were performed 1 h 15 (±5 min), 1 h 30 (±10 min), 1 h 45 (±10 min), 2 h (±10 min), 3 h (±15 min), 4 h (±15 min), 8 h (±30 min), 24 h (Day 1+1 h) and 7 days after the test item injections.
For each CT-scan, the animal was positioned in dorsal recumbency (ventral images) and acquisitions were centered on the injection sites. The parameters of the CT-scan are described in Table 4.
The CT acquisitions were analyzed with Avizo version 9.2.0 software. […] To achieve this goal, the evolution of the following parameters was observed over time: • the volume of each nodule, • the mean density of each nodule, and • the 3D shape of each nodule by visualization on the 3D model of each nodule at each time point. Segmentation
An image segmentation was performed on each CT acquisition using standard reconstruction. First, a manual pre-segmentation was performed around each nodule in order to roughly isolate the voxels corresponding to dermal filler. An interpolation procedure was performed to obtain a contour for each slice and define a Region of Interest (ROI). Second, an automatic segmentation was applied on the ROI previously defined using a global grey level thresholding procedure. The relevant threshold allowing the isolation of the dermal filler products was defined on the basis of the Hounsfield Unit (HU) histogram, following the Otsu method to accurately define the ROI. […] Then, a 3D model of these selected voxels was obtained allowing calculation of the total volume (in mm^3) of each nodule of non-degraded dermal filler.
The volume (in mm^3) of the ROI corresponding to each nodule of dermal filler and the mean density (in HU) of each nodule were calculated at each time point.
In order to assess the evolution over time of the elimination of SC-injected dermal filler, the mean volume±standard deviation (SD) and the average of mean density±SD were calculated for each dermal filler injection of the right and left flank separately at each different time points. The evolution of the mean volumes, the mean volume variations and the average of the mean densities of each dermal filler were calculated.

[2] = Electron microscopy (SEM) of filler particles isolated from test sites (Example 1)
Method: EM analysis is used, for example, to analyze morphology and the particle size distribution of Calcium Hydroxyapatite (CaHA) particles in tissue integrated particles. […] The biopsy material underwent an enzymatic digestion with protease (Trypsin without EDTA, for […], at 37° C.) after fixation in 10% neutral buffered formalin (NBF). Digested sample was centrifuged, and microscopy samples of the supernatant as well as the pellet were prepared and subjected to EM analysis at room temperature.
Samples were analyzed using a Scanning Electron Microscope (SEM) (Phenom Pure G3, ThermoFisher, with Phenom Pro Suite application system, ImageJ (version 1.51j8) software and OriginPro 2018G (64-bit) SR1 b9.5.1.195 software for analysis and data processing). To evaluate the changes in CaHA microparticle characteristics the samples were analyzed with the Scanning Electron Microscopy (SEM) and evaluated for morphology as well as for the size and shape of the material. Statistical analysis of particle size distribution (PSD) would show changes of the material.
SEM images were taken from three fractions per sample to determine the particle- and volume-weighted size distributions. Up to 400 SEM images per fraction were taken at a magnification of ×500 and further processed by automated image analyzing software ImageJ (version 1.51j8). Image processing took place for every fraction image to determine selected parameters. e.g., Feret diameter and aspect ratio (D-ratio).

[3] = day 7 after injection; 1.5 mL into 0.5 mL filler site; vs untreated filler
[4] = Semi-quantitative histopathologic analysis of injection sites (Example 1)
Method: After complete fixation in 10% NBF and micro-CT analysis, the 30 test sites and the TO site, were cut into five blocks. The blocks were decalcified for 48 hours with formic acid and then dehydrated in alcohol solutions of increasing concentration, cleared in xylene and embedded in paraffin. […] Finally, the blocks were placed in HCl for 15 min and the blocks could then be cut to obtain slides for analysis.
The section was stained with safranin-hematoxylin-cosin (SHE). The same procedure was used for the preparation of the TO site used for structural characterization and evaluation of the degradation.
Qualitative and semi-quantitative histopathologic evaluation of the local tissue effects and the inflammatory response at injection sites was conducted according using standard methods.
Evaluation of local tissue effects was based on the qualitative and semi-quantitative histopathologic evaluation: mean score comparison of the semi-quantitative parameters and comparison of the qualitative histopathologic findings.

[5] = particle size distribution by EM, day 7

With `O=S([O-])([O-])=S.[Na+].[Na+]` [STS, sodium thiosulfate] the “Radiesse+STS high volume (HU 250-infinity) vs untreated filler by CT” value ([1]; 90 minutes after injection) was “very modest temporary increase”, the “Radiesse+STS high density vs untreated filler by CT” value ([1]; day 7) was “strong trend for a decrease” and the “filler volume×density/1000 (filler content) in Radiesse+STS high fraction” value ([1]; day 7) was “significant decrease of filler”. The “highest HU values of voxel frequency trace” value ([1]; day 7, untreated filler 450-570 HU) was 250-400 HU, the “number of voxels at 750 HU” value ([1]; day 7, untreated filler c.a. 70) was about 40 voxels and the “Radiesse-STS (low) volume (0 to 250 HU) by CT” value ([1]; diluted/dispersed fraction over time) was “increases with the time between 120 and 240 minutes”. For the same compound, the “particle degradation (change in particle size or surfaces) by EM” value ([2]; day 7) was “no indication of particle degradation”, the Mean diameter ([2]; filler particles by EM, seven days after filler injection) was 29.2 μm and the “25-45 μm” value [2, 5] was 93.1 wt %. For the same compound, the “<25 μm” value [2, 5] was 1.7 wt %, the “>45 μm” value [2, 5] was 5.2 wt % and the D-ratio ([2]; shape index, 1=round, EM, day 7) was 0.8. For the same compound, the “effect on dermal filler volume as measured by micro-CT” value [3] was at most 10%, the “appearance of filler in histology slices” value ([4]; SHE stain, vs Saline treatment or untreated filler) was “more dispersed (diluted) appearance of filler” and the “AM Degradation” value ([4]; mean score, day 7) was 1.8. For the same compound, the “Cell or Tissue Degeneration” value ([4]; mean score, day 7) was 0.0, the Encapsulation ([4]; mean score, day 7) was 0.0 and the “Fatty Infiltrate” value ([4]; mean score, day 7) was 0.0. For the same compound, the Fibrin ([4]; mean score, day 7) was 2.4, the Fibroblasts ([4]; mean score, day 7) was 2.0 and the Fibrosis ([4]; mean score, day 7) was 0.0. For the same compound, the “Giant Cells” value ([4]; mean score, day 7) was 1.4, the Hemorrhage ([4]; mean score, day 7) was 2.1 and the Lymphocytes ([4]; mean score, day 7) was 1.1. It also gave a Macrophages ([4]; mean score, day 7) of 2.0, a Necrosis ([4]; mean score, day 7) of 1.2 and a Neovascularization ([4]; mean score, day 7) of 1.0. The “Plasma Cells” value ([4]; mean score, day 7) was 0.0, the “Polymorphonuclear Cells” value ([4]; mean score, day 7) was 1.1 and the “Tissue Ingrowth” value ([4]; mean score, day 7) was 2.5. The “Tissue Integration” value ([4]; mean score, day 7) was 2.5, the “fibrin content, hemorrhage and necrosis by histopathology” value ([4]; seven days) was “increased fibrin content, hemorrhage and necrosis” and the inflammation by histopathology ([4]; seven days) was “decreased inflammation (macrophages, giant cells)”. For the same compound, the “amount of filler by histopathology” value ([4]; seven days, vs Saline treatment and untreated injections) was “decreased amount of filler”.
